Read-outs that look alike come from different tables or passages of the source.

We go through 10 compounds from patent EP0055702B1, “Antithrombotic treatment” (priority 1980, dated 1982).

The conditions of series [1]: rabbits; cited from earlier work.
Another series has as its system blood coagulation time. The following applies: 10 mM; Kikugawa; cited from earlier work.
A further series concerns dog plasma. To be noted: 10 mM, Elias; cited from earlier work.
Another series concerns thrombin. To be noted: Elias; cited from earlier work.
For series [2], the system named is human, rabbit and rat plasma. Nature of the series: PT (prothrombin time) in plasma in vitro, Example 3. The following applies: for PT (seconds) Exp. 1 A / PT (seconds) Exp.2 A: active agent 0.5/ml, control; for prolongation of PT: 0.5 mg/ml, human, rabbit and rat plasma in vitro, dose-related. The series is classed as biochemical. The source says:
(§1) Sodium, potassium and ammonium bisulphites are found to prolong PT and PTT in a dose-related fashion.
(§2) The evaluation procedure used is that described in "Human Blood Coagulation, Haemostasis and Thrombosis", edited by Rosemary Biggs, published by Blackwell Scientific Publications, Oxford, England (2nd Edition), pages 670-705, 1976.

The subject of series [3] is platelet-fibrinogen preparations. To be noted: 10 to 50 mM; Chao; cited from earlier work.
For series [4], the system named is celite-fibrinogen suspension. To be noted: Chao, cited from earlier work.
Series [5] in a line: PT of coded and various agents, Example 6. The series is classed as biochemical. The source says:
(§3) A variety of agents were coded and evaluated under a code designation. Among these compounds, thiouracil, mercaptosuccinic acid, thiosemicarbazide, phenothiazine and sodium thiosulphate were included, so as to compare sodium bisulphite with certain compounds mentioned in USP 4,148,855.
(§4) After determination of PT and PTT values, the coded compounds were decoded.
(§5) The results are shown in Table V, where mean values of 5 replications in each case are reported. […] This procedure was repeated with some additional compounds on two different days using a different control on each day.

Series [6] deals with human, rabbit and rat plasma. Nature of the series: PTT (partial thromboplastin time) in plasma in vitro, Example 3. The following applies: for PTT (seconds) Exp. 1 A / PTT (seconds) Exp. 2 A: active agent 0.5/ml, control; for prolongation of PTT: 0.5 mg/ml, human, rabbit and rat plasma in vitro, dose-related. Format: biochemical.
Description: as §1, §2

Series [7] in a line: PTT of coded and various agents, Example 6. The series is classed as biochemical. To be noted: for PTT: Table V, coded agents 0.5 mg/ml, Control 43.38.
Description: as §3, §4, §5

Setting [8] is: Table V, coded agents 0.5 mg/ml, Control 12.92.
Setting [9] is: coded compounds after decoding, in vitro.

The term LD50 denotes the dose expected to kill half of the subjects tested. Consider sodium bisulphite/sulphite, for which, in series [1], the LD50 was 65 mg/kg. Further, the “effect on blood coagulation time” value in the series with blood coagulation time is “no effect”.
On to Sodium sulphite, for which the “increase of thrombin time” value with dog plasma is “about 38%”. Also, in the series on thrombin, the “inhibitory effect on TAME esterolytic activity of thrombin” value was “No inhibitory effect”. Moreover, the “PT (seconds) Exp. 1 A” value in [2] (Test sequence A) was 16.2 s; in series [2] (Test sequence B), 16.8 s. Moreover, the “PT (seconds) Exp.2 A” value in series [2] (Test sequence A) and in series [2] (Test sequence B) was 17.7 s throughout. Moreover, in series [3], the “effect on the first wave of platelet-fibrinogen preparations” value is reported as “no effect”. Besides, the “inhibition of thrombin-induced light transmission increase (LTI)” value in series [4] (10 mM) is listed as “partial inhibition”; in series [4] (50 mM), “complete inhibition”. Further, the “PT” value in series [5] worked out at 16.38 s; in [5] (setting [8]), 16.14 s. The “PTT (seconds) Exp. 1 A” value came to 66.1 s in series [6] (Test sequence A) and 74.8 s in series [6] (Test sequence B). In addition, the “PTT (seconds) Exp. 2 A” value in series [6] (Test sequence A) turned out to be 80.7 s; in series [6] (Test sequence B), 82.1 s. Also, the “PTT” value in series [7] amounted to 64.62 s.
For “Sodium thiosulphate [SI6, reference compound]”, the “PT” value in series [5] was 13.5 s.
For Ammonium sulphite, in [2] (Test sequence A), the “PT (seconds) Exp. 1 A” value amounted to 14.7 s and the “PT (seconds) Exp.2 A” value is 16.9 s. The “PT” value in series [5] came out at 16.08 s. Also, in [6] (Test sequence A), the “PTT (seconds) Exp. 1 A” value was 56.5 s and the “PTT (seconds) Exp. 2 A” value was found to be 65.2 s.
As to potassium bisulphite, the “prolongation of PT” value in series [2] is listed as “significantly prolong”. Besides, the “prolongation of PTT” value in series [6] is on record as “significantly prolong”.
On to ammonium bisulphite, for which, in [2], the “prolongation of PT” value was “significantly prolong”. Further, the “prolongation of PTT” value in series [6] is on record as “significantly prolong”.
For the compound “Dihydroxymalcic acid 2 H2O [Solution A3, reference compound]”, the “PT” value in [5] (setting [8]) was found to be 14.95 s. Besides, the “PTT” value in series [7] was determined as 53.00 s.
For `O=S(=O)(O)CO` [SO3, Sodium formaldehyde bisulphite, reference compound], the “effect on PT values” in [5] (setting [9]) was “effected in increasing PT and PTT values”. The “effect on PTT values” in [7] (setting [9]) was “effected in increasing PT and PTT values”.
Turning to `O=S([O-])S(=O)(=O)[O-].[Na+].[Na+]` [Sodium metabisulphite], the “PTT (seconds) Exp. 2 A” value in series [6] (Test sequence A) is 80.3 s.
In the case of `O=S([O-])S(=O)(=O)[O-].[K+].[K+]` [Potassium metabisulphite], the “PT (seconds) Exp.2 A” value in [2] (Test sequence A) was found to be 22.0 s.
